Experimental findings from US20230339902A1, “TRICYCLIC LIGANDS FOR DEGRADATION OF IKZF2 OR IKZF4” (C4 Therapeutics, Inc., priority 2020, published 2023) are described below.

One assay concerns the target T1, IKZF2 (Homo sapiens, UniProt Q96SW2+Q9UKS7).
T1 construct: endogenously expressing IKZF2 with HiBiT fusion tag via CRISPR; host or cells: JURKAT.21 (IKZF2-HiBiT), CRISPR knock-in
Kind of assay: IKZF2 degradation assay, HiBiT method (Nano-Glo HiBiT Lytic Assay). The format is cell-based. The conditions noted are these: JURKAT.21 (IKZF2-HiBiT) cells. The source says: Example 61 IKZF2 Degradation Assay
RPMI 1640 Medium without phenol red and fetal bovine serum (FBS) were purchased from Gibco (Grand Island, NY, USA). Nano-Glo® HiBiT Lytic Assay System was purchased from Promega (Madison, WI, USA). JURKAT.21 (IKZF2-HiBiT) cell line, endogenously expressing IKZF2 with HiBiT fusion tag via CRISPR, was purchasing from Synthego (Menlo Park, CA, USA). Cell culture flasks and 384-well microplates were acquired from VWR (Radnor, PA, USA).
IKZF2 Degradation Analysis
(§1) IKZF2 degradation was determined based on quantification of luminescent signal using Nano-Glo® HiBiT Lytic Assay kit. Test compounds were added to the 384-well plate from a top concentration of 10 µM with 11 points, half log titration in duplicates. JURKAT.216 cells were added into 384-well plates at a cell density of 5000 cells per well. The plates were kept at 37° C. with 5% CO2 for 6 or 24 hours. The cells treated in the absence of the test compound were the negative control and the cells without Nano-Glo® HiBiT Lytic reagent were the positive control. After 6-hour or 24-hour incubation, Nano-Glo® HiBiT Lytic Assay reagents were added to the cells. Luminescence was acquired on EnVision™ Multilabel Reader (PerkinElmer, Santa Clara, CA, USA).

The target of a further assay is T2, GSPT1 (Homo sapiens, UniProt P15170+Q96SW2).
T2 construct: endogenously expressing GSPT1 with HiBiT fusion tag via CRISPR; endogenous in cells; host or cells: 293T.114 (HiBiT-GSPT1), CRISPR knock-in, generated in house
T2 sequence (P15170 whole entry, the tested form may be a part): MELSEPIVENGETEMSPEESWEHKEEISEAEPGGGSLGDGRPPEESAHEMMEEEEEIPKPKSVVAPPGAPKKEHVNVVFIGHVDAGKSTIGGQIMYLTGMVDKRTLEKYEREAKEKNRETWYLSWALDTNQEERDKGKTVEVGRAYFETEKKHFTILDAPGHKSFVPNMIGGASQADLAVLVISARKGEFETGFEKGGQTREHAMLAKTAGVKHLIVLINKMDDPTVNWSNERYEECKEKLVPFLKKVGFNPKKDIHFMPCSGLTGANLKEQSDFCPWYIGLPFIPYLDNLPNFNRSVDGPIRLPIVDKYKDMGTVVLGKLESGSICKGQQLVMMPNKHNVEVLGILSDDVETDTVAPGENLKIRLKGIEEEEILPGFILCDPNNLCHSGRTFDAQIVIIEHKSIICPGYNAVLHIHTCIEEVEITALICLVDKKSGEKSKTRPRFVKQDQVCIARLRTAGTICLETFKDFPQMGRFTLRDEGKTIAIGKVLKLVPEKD
T2 sequence (Q96SW2 whole entry, the tested form may be a part): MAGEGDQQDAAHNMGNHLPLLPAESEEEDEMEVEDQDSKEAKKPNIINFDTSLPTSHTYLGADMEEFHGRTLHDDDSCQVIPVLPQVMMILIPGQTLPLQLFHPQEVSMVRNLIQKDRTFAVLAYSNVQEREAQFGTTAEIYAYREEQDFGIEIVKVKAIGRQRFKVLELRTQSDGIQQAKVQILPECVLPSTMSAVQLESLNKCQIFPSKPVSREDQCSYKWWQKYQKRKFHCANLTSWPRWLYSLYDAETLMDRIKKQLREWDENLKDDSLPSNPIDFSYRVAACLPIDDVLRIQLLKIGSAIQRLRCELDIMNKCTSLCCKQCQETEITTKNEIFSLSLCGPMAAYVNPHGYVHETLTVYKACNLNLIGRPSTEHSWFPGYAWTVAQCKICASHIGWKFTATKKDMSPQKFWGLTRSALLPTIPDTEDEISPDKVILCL
T2 sequence (Q16531 whole entry partner, the tested form may be a part): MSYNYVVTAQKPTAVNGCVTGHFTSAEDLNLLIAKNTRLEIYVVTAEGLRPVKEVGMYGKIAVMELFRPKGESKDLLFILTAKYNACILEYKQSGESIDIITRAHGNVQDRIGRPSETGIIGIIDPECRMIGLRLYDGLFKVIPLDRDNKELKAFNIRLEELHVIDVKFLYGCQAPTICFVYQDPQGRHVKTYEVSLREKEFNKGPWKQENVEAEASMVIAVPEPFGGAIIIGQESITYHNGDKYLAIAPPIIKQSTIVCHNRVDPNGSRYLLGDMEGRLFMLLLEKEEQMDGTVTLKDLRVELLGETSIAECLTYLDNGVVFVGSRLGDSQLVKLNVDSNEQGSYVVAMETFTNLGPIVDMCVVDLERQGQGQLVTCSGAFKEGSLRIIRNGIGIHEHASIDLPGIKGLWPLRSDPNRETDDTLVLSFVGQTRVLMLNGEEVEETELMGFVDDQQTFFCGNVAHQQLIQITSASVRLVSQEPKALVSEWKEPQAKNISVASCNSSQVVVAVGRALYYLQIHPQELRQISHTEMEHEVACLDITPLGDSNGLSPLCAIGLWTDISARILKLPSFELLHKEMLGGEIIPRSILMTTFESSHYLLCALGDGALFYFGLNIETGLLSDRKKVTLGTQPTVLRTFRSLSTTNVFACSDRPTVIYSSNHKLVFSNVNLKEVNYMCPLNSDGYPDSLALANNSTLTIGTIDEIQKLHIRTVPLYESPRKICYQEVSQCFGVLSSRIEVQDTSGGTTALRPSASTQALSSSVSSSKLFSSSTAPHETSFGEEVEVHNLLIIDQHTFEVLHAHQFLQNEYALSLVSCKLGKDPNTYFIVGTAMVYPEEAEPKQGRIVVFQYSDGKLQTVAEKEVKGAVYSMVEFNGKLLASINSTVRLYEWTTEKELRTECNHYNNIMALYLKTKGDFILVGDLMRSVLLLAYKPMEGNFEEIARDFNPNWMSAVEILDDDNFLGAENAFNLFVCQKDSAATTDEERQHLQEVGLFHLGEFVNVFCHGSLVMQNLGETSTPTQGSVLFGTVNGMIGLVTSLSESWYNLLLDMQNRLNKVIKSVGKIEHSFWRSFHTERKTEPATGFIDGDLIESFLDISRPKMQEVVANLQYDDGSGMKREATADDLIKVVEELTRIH
The experiment in a line: GSPT1 degradation assay, HiBiT method (Nano-Glo HiBiT Lytic Assay). It counts as cell-based. To be noted: 293T.114 (HiBiT-GSPT1) cells, 6 hours. The procedure:
Example 62 GSPT1 Degradation Assay
DMEM no-phenol red medium and fetal bovine serum (FBS) were purchased from Gibco (Grand Island, NY, USA). Nano-Glo® HiBiT Lytic Assay System was purchased from Promega (Madison, WI, USA). 293T.114 (HiBiT-GSPT1) cell line was generated in house, endogenously expressing GSPT1 with HiBiT fusion tag via CRISPR. Cell culture flasks and 384-well microplates were acquired from VWR (Radnor, PA, USA).
GSPT1 Degradation Analysis
as §1, with “GSPT1” for “IKZF2”, “293T.114” for “JURKAT.216”, “6000” for “5000”, “6” for “6 or 24”, “6-hour” for “6-hour or 24-hour”, “designated wells.” for “cells.”
In general terms: HiBiT is a short tag that completes a luciferase, so light tracks the accessible tagged protein.

[1] abbreviates: 6 hours, read-out: HiBiT-Degradation JURKAT.21 IKZF2 6 hours DC50.
Setting [2] is: 6 hours, read-out: HiBiT-Degradation JURKAT.21 IKZF2 6 hours Emax.
Where [3] appears, read: 24 hours, read-out: HiBiT-Degradation JURKAT.21 IKZF2 24 hours DC50.
The mark [4] stands for this setting: 24 hours, read-out: HiBiT-Degradation JURKAT.21 IKZF2 24 hours Emax.

Where two headings read alike, the source gives them in different places. A value given as a limit tells only on which side of the number the result lay.

T1 sequence (Q9UKS7 whole entry, the tested form may be a part): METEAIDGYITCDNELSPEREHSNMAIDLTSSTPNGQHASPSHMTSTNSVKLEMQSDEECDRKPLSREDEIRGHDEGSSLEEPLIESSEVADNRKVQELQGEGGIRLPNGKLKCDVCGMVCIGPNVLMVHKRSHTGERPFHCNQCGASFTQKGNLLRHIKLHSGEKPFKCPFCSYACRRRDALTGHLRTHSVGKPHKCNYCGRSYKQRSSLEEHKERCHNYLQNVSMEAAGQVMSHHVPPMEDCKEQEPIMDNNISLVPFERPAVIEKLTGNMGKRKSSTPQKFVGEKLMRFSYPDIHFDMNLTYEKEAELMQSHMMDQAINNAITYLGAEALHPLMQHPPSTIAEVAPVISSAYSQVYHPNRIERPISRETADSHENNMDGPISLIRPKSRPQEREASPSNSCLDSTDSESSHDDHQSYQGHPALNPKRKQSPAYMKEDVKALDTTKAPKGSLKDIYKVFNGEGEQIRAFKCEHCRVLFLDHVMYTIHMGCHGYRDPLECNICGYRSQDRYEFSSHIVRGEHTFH
T1 sequence (Q96SW2 whole entry, the tested form may be a part): as the sequence (Q96SW2 whole entry, the tested form may be a part) above
T1 sequence (Q16531 whole entry partner, the tested form may be a part): as the sequence (Q16531 whole entry partner, the tested form may be a part) above

A word on the DC50: it is the concentration at which degradation of the target reaches its halfway point. Usually Emax stands for the size of the effect at its maximum, as opposed to the concentration needed. With `O=C1CCC(N2C(=O)c3ccc(OC4CCCC[C@@H]4N4CC(Oc5cccc(F)c5)C4)c4cccc2c34)C(=O)N1` (stereo in doubt) [Compound 117, 3-[5-[(1R)-2-[3-(3-fluorophenoxy)azetidin-1-yl]cyclohexoxy]-2-oxo-benzo[cd]indol-1-yl]piperidine-2,6-dione], the DC50 on IKZF2 (setting [1]) is greater than 10 µM. Further, the Emax on IKZF2 (setting [2]) is 60 to 95%.
As to `O=C1CCC(N2C(=O)c3ccc(C4(F)CCN(Cc5ccccc5)CC4)c4cccc2c34)C(=O)N1` (stereo not shown) [Compound 96, 3-[5-(1-benzyl-4-fluoro-4-piperidyl)-2-oxo-benzo[cd]indol-1-yl]piperidine-2,6-dione], the DC50 on GSPT1 and on IKZF2 (setting [1]) was greater than 10 µM throughout. For the same compound, the Emax at GSPT1 and on IKZF2 (setting [2]) was 60 to 95% each time.
For the compound `CN1CCC(F)(c2ccc3c4c(cccc24)N(C2CCC(=O)NC2=O)C3=O)CC1` (stereo not shown) [Compound 97], the DC50 at GSPT1 and on IKZF2 (setting [1]) was greater than 10 µM throughout. For the same compound, the Emax at GSPT1 and at IKZF2 (setting [2]) was 60 to 95% each time.
With `CN1CCC(c2ccc3c4c(cccc24)N(C2CCC(=O)NC2=O)C3=O)C1` (stereo not shown) [Compound 98, 3-[5-(1-methylpyrrolidin-3-yl)-2-oxo-benzo[cd]indol-1-yl]piperidine-2,6-dione], the DC50 on GSPT1 and on IKZF2 (setting [1]) was greater than 10 µM throughout. For the same compound, the maximal effect (Emax) at GSPT1 was greater than 95%; at IKZF2 (setting [2]), 60 to 95%.
`O=C1CCC(N2C(=O)c3ccc(C4CCN(Cc5ccccc5)C4)c4cccc2c34)C(=O)N1` (stereo not shown) [Compound 99]: the DC50 on GSPT1 and at IKZF2 (setting [1]) was greater than 10 µM in each case. Moreover, the Emax at GSPT1 is greater than 95%; at IKZF2 (setting [2]), 60 to 95%.
Take `O=C1CCC(N2C(=O)c3ccc(C4(F)CN(Cc5ccccc5)C4)c4cccc2c34)C(=O)N1` (stereo not shown) [Compound 100, 3-[5-(1-benzyl-3-fluoro-azetidin-3-yl)-2-oxo-benzo[cd]indol-1-yl]piperidine-2,6-dione]: the DC50 at GSPT1 and at IKZF2 (setting [1]) was greater than 10 µM throughout. Besides, the Emax was greater than 95% on GSPT1 and 60 to 95% at IKZF2 (setting [2]).
Turning to `CN1CC(F)(c2ccc3c4c(cccc24)N(C2CCC(=O)NC2=O)C3=O)C1` (stereo not shown) [Compound 101], the DC50 at GSPT1 and on IKZF2 (setting [1]) was greater than 10 µM in each case. Also, the figures for the Emax on GSPT1 and on IKZF2 (setting [2]) were greater than 95% and 60 to 95%, respectively.
On to `CN1CC(c2ccc3c4c(cccc24)N(C2CCC(=O)NC2=O)C3=O)C1` (stereo not shown) [Compound 102, 3-[5-(1-methylazetidin-3-yl)-2-oxo-benzo[cd]indol-1-yl]piperidine-2,6-dione], for which the DC50 at GSPT1, on IKZF2 (setting [1]) and at IKZF2 (setting [3]) was greater than 10 µM in each case. Also, the Emax at GSPT1, at IKZF2 (setting [2]) and at IKZF2 (setting [4]) was 60 to 95% in each case.
In the case of `O=C1CCC(N2C(=O)c3ccc(CC4CN(Cc5ccccc5)C4)c4cccc2c34)C(=O)N1` (stereo not shown) [Compound 103, 3-[5-[(1-benzylazetidin-3-yl)methyl]-2-oxo-benzo[cd]indol-1-yl]piperidine-2,6-dione], the DC50 at GSPT1 and at IKZF2 (setting [1]) was greater than 10 µM in each case. The Emax on GSPT1 and on IKZF2 (setting [2]) was 60 to 95% throughout.
Consider `CC(C)(C)OC(=O)N1CC(Cc2ccc3c4c(cccc24)N(C2CCC(=O)NC2=O)C3=O)C1` (stereo not shown) [Compound 104, Tert-butyl 3-[[1-(2,6-dioxo-3-piperidyl)-2-oxo-benzo[cd]indol-5-yl]methyl]azetidine-1-carboxylate], for which the DC50 on GSPT1 and on IKZF2 (setting [1]) was greater than 10 µM throughout. Also, the Emax on GSPT1 and at IKZF2 (setting [2]) was 60 to 95% throughout.
Consider `CN1CC(Cc2ccc3c4c(cccc24)N(C2CCC(=O)NC2=O)C3=O)C1` (stereo not shown) [Compound 105, 3-[5-[(1-methylazetidin-3-yl)methyl]-2-oxo-benzo[cd]indol-1-yl]piperidine-2,6-dione], for which the DC50 at GSPT1 and at IKZF2 (setting [1]) was greater than 10 µM throughout. The Emax is greater than 95% at GSPT1 and 60 to 95% on IKZF2 (setting [2]).
Take `Cc1cc(C)nc(-c2ccc3c4c(cccc24)N(C2CCC(=O)NC2=O)C3=O)n1` (stereo not shown) [Compound 106, 3-[5-(4,6-dimethylpyrimidin-2-yl)-2-oxo-benzo[cd]indol-1-yl]piperidine-2,6-dione]: the DC50 on GSPT1 is greater than 10 µM; at IKZF2 (setting [1]), less than 0.5 µM; on IKZF2 (setting [3]), less than 0.5 µM. Further, the Emax on GSPT1 is 60 to 95%; at IKZF2 (setting [2]), 45 to 60%; at IKZF2 (setting [4]), less than 45%.
Turning to `CC(NC(=O)c1ccc2c3c(cccc13)N(C1CCC(=O)NC1=O)C2=O)c1ccccc1` (stereo not shown) [Compound 107, 1-(2,6-dioxo-3-piperidyl)-2-oxo-N-(1-phenylethyl)benzo[cd]indole-5-carboxamide], the half-maximal degradation concentration (DC50) on GSPT1 and on IKZF2 (setting [1]) was greater than 10 µM in each case. The Emax at GSPT1 and on IKZF2 (setting [2]) was 60 to 95% throughout.
On GSPT1, `COc1ccccc1C(C)NC(=O)c1ccc2c3c(cccc13)N(C1CCC(=O)NC1=O)C2=O` (stereo not shown) [Compound 109, 1-(2,6-dioxopiperidin-3-yl)-N-(1-(2-methoxyphenyl)ethyl)-2-oxo-1,2-dihydrobenzo[cd]indole-5-carboxamide] came in with a DC50 greater than 10 µM and an Emax of 60 to 95%.
As for `O=C1CCC(N2C(=O)c3ccc(C(=O)NC(c4ccccc4)C(F)(F)F)c4cccc2c34)C(=O)N1` (stereo not shown) [Compound 110, 1-(2,6-dioxopiperidin-3-yl)-2-oxo-N-(2,2,2-trifluoro-1-phenylethyl)-1,2-dihydrobenzo[cd]indole-5-carboxamide], at IKZF2 (setting [1]), the DC50 is greater than 10 µM. On IKZF2 (setting [2]), the Emax was 60 to 95%.
With `CC(C)NC(=O)c1ccc2c3c(cccc13)N(C1CCC(=O)NC1=O)C2=O` (stereo not shown) [Compound 112, 1-(2,6-dioxopiperidin-3-yl)-N-isopropyl-2-oxo-1,2-dihydrobenzo[cd]indole-5-carboxamide], the half-maximal degradation concentration (DC50) at GSPT1 and on IKZF2 (setting [1]) was greater than 10 µM throughout. The Emax on GSPT1 and on IKZF2 (setting [2]) was 60 to 95% each time.
With `CN1CCN(c2ccc3c4c(cccc24)N(C2CCC(=O)NC2=O)C3=O)CC1` (stereo not shown) [Compound 114, 3-[5-(4-methylpiperazin-1-yl)-2-oxo-benzo[cd]indol-1-yl]piperidine-2,6-dione], on GSPT1, the DC50 was greater than 10 µM and the maximal effect (Emax) was in the range of 60 to 95%.
As to `O=C1CCC(N2C(=O)c3ccc(N4CCN(Cc5ccccc5)CC4)c4cccc2c34)C(=O)N1` (stereo not shown) [Compound 115], the DC50 at IKZF2 (setting [1]) is greater than 10 µM. Besides, at IKZF2 (setting [2]), the Emax was in the range of 60 to 95%.
As for `CN(c1ccc2c3c(cccc13)N(C1CCC(=O)NC1=O)C2=O)C1CCN(Cc2ccccc2)C1` (stereo not shown) [Compound 116], at GSPT1, the DC50 is greater than 10 µM and the Emax lay in the range of 60 to 95%.
As to `O=C1CCC(N2C(=O)c3ccc(N4CCN(Cc5ccccc5)CC4)c4nccc2c34)C(=O)N1` (stereo not shown) [Compound 120, 3-[18-(4-benzylpiperazin-1-yl)-24-oxo-26,30-diazatricyclododeca-5,7(19),8(26),17(20),18(21)-pentaen-30-yl]piperidine-2,6-dione], the DC50 at GSPT1 and on IKZF2 (setting [1]) was greater than 10 µM in each case. In addition, the Emax at GSPT1 and at IKZF2 (setting [2]) was 60 to 95% throughout.
On GSPT1, `O=C1CCC(N2C(=O)c3ccc(C4(F)CCN(Cc5ccccc5)CC4)c4nccc2c34)C(=O)N1` (stereo not shown) [Compound 123, 3-[18-(1-benzyl-4-fluoro-4-piperidyl)-24-oxo-27,30-diazatricyclododeca-5(17),6(18),7(19),8(27),20-pentaen-30-yl]piperidine-2,6-dione] yielded a DC50 greater than 10 µM and an Emax of 60 to 95%.
As for `O=C1CCC(N2C(=O)c3ccc(C4CCN(Cc5ccccc5)CC4)c4nccc2c34)C(=O)N1` (stereo not shown) [Compound 126, 3-[17-(1-benzyl-4-piperidyl)-25-oxo-27,30-diazatricyclododeca-5(17),6(18),7(19),8(27),20-pentaen-30-yl]piperidine-2,6-dione], at IKZF2 (setting [1]), the DC50 is greater than 10 µM. In addition, the Emax on IKZF2 (setting [2]) is 60 to 95%.
